# Patent US20190084939A1, “ANALOGS OF FEXARAMINE AND METHODS OF MAKING AND USING” (Salk Institute for Biological Studies, priority 2014, published 2019)
# Entries after “also recorded” stand apart in the source; their conditions may differ.
# Assays:
# Type in all cases: in vivo
# [1] = tested on: diet-induced obesity (DIO) mice; assay: chronic PO fexaramine in diet-induced obesity (DIO) mice; settings: for glucose tolerance and insulin sensitivity (GTT, ITT): PO 5 weeks
# Procedure: FIGS. 2A-2G are graphs illustrating the reduction of diet-induced obesity and improvement in metabolic homeostasis with fexaramine. […] Data represent the mean±STD. Statistical analysis was performed with the Student's t test (*p<0.05, **p<0.01).
# The physiological effects of fexaramine in established obesity (diet-induced obesity, DIO) models were evaluated. […]
# [2] = tested on: TGR5 null mice; assay: chronic PO fexaramine in HFD-fed TGR5-null mice; settings: 100 mg/kg/day PO 5 weeks
# Procedure: HFD-fed TGR5-null mice were treated with vehicle or fexaramine (100 mg/kg os daily for 5 weeks with HFD, n=10). (A) Ileal FXR target gene expressions (B) Serum BA levels (C) Fasting glucose levels (D) Glucose tolerance test (E) Core body temperature (F) Oxygen consumption rate (G) Carbon dioxide production (H) Gene expression in BAT (I) Body weight curve (J) Body composition by MRI (K) Insulin Tolerance Test (L) Hepatic gene expression (M) Hepatic TG levels (N) and Gene expression in soleus of TGR5 knockout mice with and without fexaramine treatment. Data represent the mean±SD. Statistical analysis was performed with the Student's t test. *p<0.05, **p<0.01.
# To address this possibility, HFD-fed TGR5 null mice were chronically treated with Fex (100 mg/kg/day PO for 5 weeks). […] In particular, the anti-lipogenic effects of Fex in the liver appear to require TGR5 activation, as key hepatic lipogenic genes and liver triglyceride content were not affected by Fex treatment (FIGS. 11L, 11M).
# [3] = tested on: pancreatic islets gene expression; assay: RNA-Seq of pancreatic islets of treated ob/ob mice; settings: fexaramine 100 mg/kg 5 weeks, analogs 50 mg/kg 2 weeks
# Procedure: Pancreatic islets were isolated from ob/ob mice after daily treatment by oral gavage with fexaramine (100 mg/kg for 5 weeks), FEX-D (50 mg/kg for 2 weeks) or SALK110 (NSSK00110, 50 mg/kg for 2 weeks). Changes in gene expression were determined by RNA-Seq.
# [4] = tested on: ob/ob mice; assay: fexaramine and deuterated analogs in ob/ob mice, 2 weeks; settings: 2 weeks at 50 mg/kg PO
# Procedure: An in vivo study of fexaramine and selectively-deuterated fexaramine compounds (FIG. 29A) was performed. Briefly, ob/ob mice were treated daily with vehicle, Fex, or deuterated analogs (50 mg kg^−1) by oral (PO) gavage for 2 weeks. Subsequently, body weight, body temperature, fasting blood glucose and insulin levels, insulin secretion, and GLP1 section were measured, and glucose tolerance tests (GTTs) performed.
compound,measurement,setting,value
"COC(=O)/C=C/c1cccc(N(Cc2ccc(-c3ccc(N(C)C)cc3)cc2)C(=O)C2CCCCC2)c1 [Fexaramine, fexaramine]","BAT expression of ERRγ, PGC-1α, PGC-1β and target genes",[1]; DIO mice,induction
same,PKA activity in BAT,[1]; DIO mice,increased PKA activity
same,accumulation of lipid vesicles in brown adipose tissue (BAT),[1]; DIO mice,markedly reduced
same,activity (ambulatory counts),[1]; DIO mice,more active than control mice
same,bile acid pool size,[1]; DIO mice,reducing
same,brown fat-like signature genes and respiratory capacity of stromal vascular fraction of inguinal adipose tissue,[1]; DIO mice,increased
same,circulating FGF15,[1]; DIO mice,increase
same,"expression of TNFα, MCP-1, IL-1α and F4/80 in visceral and brown adipose depots",[1]; DIO mice,reduced
same,fraction of lithocholic acid in circulating bile acids,[1]; DIO mice,increasing
same,fraction of taurocholic acid in circulating bile acids,[1]; DIO mice,decreasing
same,levels of IKK-ε and TBK1 in adipose tissue,[1]; DIO mice,reduced levels
same,liver lipid droplets (histology),[1]; DIO mice,reduction in lipid droplets
same,"mTORC1 pathway, S6K phosphorylation in gonadal WAT",[1]; DIO mice,reduced S6K phosphorylation
same,phosphorylation level of p38 in BAT,[1]; DIO mice,increased
same,ratio of unconjugated to conjugated cholic acid,[1]; DIO mice,remarkably increased
same,respiratory exchange ratio,[1]; DIO mice,No changes
same,serum alanine aminotransferase (ALT) levels,[1]; DIO mice,decreased
same,serum lactate levels,[1]; DIO mice,significantly decreased
same,"glucose, insulin, leptin, cholesterol and resistin levels","[1]; DIO mice, 100 mg/kg PO 5 weeks",reduced
same,increase of core body temperature,"[1]; DIO mice, 100 mg/kg PO 5 weeks",approximately 1.5 °C
same,overall fat mass (MRI),"[1]; DIO mice, 100 mg/kg PO 5 weeks",reduced overall fat mass
same,"serum inflammatory cytokines TNFα, IL-1α, IL-1β, IL-17 and MCP-1","[1]; DIO mice, 100 mg/kg PO 5 weeks",markedly decreased
same,weight gain,"[1]; DIO mice, 100 mg/kg PO 5 weeks",prevented weight gain
same,wet weights of subcutaneous and visceral adipose depots,"[1]; DIO mice, 100 mg/kg PO 5 weeks",significant reductions
same,prevention of weight gain over doses,"[1]; DIO mice, 10, 50 or 100 mg/kg PO 5 weeks",dose-dependent manner
same,"glucose tolerance and insulin sensitivity (GTT, ITT)",[1]; DIO mice,improved glucose clearance; also recorded: improved insulin sensitivity
same,"glucose tolerance and insulin sensitivity (GTT, ITT)","[1]; DIO mice, listed as Fex",dose-dependent improvements
same,FGF15 expression in ileum,"[1]; DIO mice, RNA-Seq",dramatically upregulated
same,"OXPHOS gene changes in inguinal, gonadal and brown adipose depots","[1]; DIO mice, RNA-sequencing",selectively enhance OXPHOS activity only in BAT
same,HSL phosphorylation and serum levels of free fatty acids,"[1]; DIO mice, chronic treatment",pronounced increase
same,cross-sectional area of adipocytes in visceral depots,"[1]; DIO mice, chronic treatment",markedly reduced
same,expression of mucosal defense genes Occludin and Muc2,"[1]; DIO mice, chronic treatment",increased expression
same,hepatic CYP7A1 expression (mRNA and protein),"[1]; DIO mice, chronic treatment",significantly repressed
same,hepatic expression of CYP8B1 and CYP27A1,"[1]; DIO mice, chronic treatment",not affected
same,hepatic expression of gluconeogenic and lipogenic genes,"[1]; DIO mice, chronic treatment",reduced
same,hepatic triglycerides,"[1]; DIO mice, chronic treatment",marked decrease
same,liver FXR target genes SHP and BSEP,"[1]; DIO mice, chronic treatment",not altered
same,serum catecholamine levels and β3-adrenergic receptor expression,"[1]; DIO mice, chronic treatment",increased
same,weight gain at the highest dose,"[1]; DIO mice, highest dose",almost completely abrogated
same,"abundance of multi-locular, UCP1-expressing adipocytes in inguinal adipose tissue","[1]; DIO mice, immunohistochemistry",substantial increase
same,respiratory exchange ratio,"[1]; DIO mice, listed as Fex",similar
same,serum lactate levels,"[1]; DIO mice, listed as Fex",significantly reduced
same,food intake,"[1]; DIO mice, versus vehicle",not attributable to difference in food intake
same,carbon dioxide production (VCO2),"[1]; DIO mice, weight-matched",exhaled more carbon dioxide
same,oxygen consumption (VO2),"[1]; DIO mice, weight-matched",consistently higher
same,intestinal toxicity (histology of ileum and colon),"[1]; mouse, in vivo, po",no signs of intestinal toxicity
same,FXR target genes in the ileum incl. FGF15,[2],induced
same,core body temperature and metabolic rate,[2],somewhat blunted increases
same,fasting glucose levels and glucose tolerance,[2],moderate improvements
same,hepatic lipogenic genes and liver triglyceride content,[2],not affected
same,serum BA levels,[2],lowered
same,weight gain or insulin sensitivity,[2],no significant changes
same,"gene induction in islets (intracellular signaling, insulin secretion, exocytosis)",[3],induce a common set of genes
same,body weight,[4],do not affect body weight
same,core body temperature,[4],did increase core body temperature
same,fasting blood glucose levels,[4],does not significantly affect
